Test results published in patent US20250002533A1, “PEPTIDE AND ITS USES” (INSTYTUT MEDYCYNY DOSW[…] […].MIROSLAWA MOSS[…] AKADEMII …, priority 2021, published 2025).

Legend:
acute pain model in rats = assay: Analgesic effect (% MPE) after subarachnoid (i.t.) administration in an acute pain model in rats; assay type: in vivo, rat
rats = settings: cited from earlier work
[1] = tested on: rats with induced neuropathic pain; assay: Chronic constriction injury (CCI) neuropathic pain model, von Frey test, central (subarachnoid) administration; assay type: in vivo, rat
Description: In the next step of the study, the peptide was administered by the central (subarachnoid) route to rats with induced neuropathic pain (the model of neuropathic pain of loose ligation of the sciatic nerve according to Bennett [Bennett and Xie, 1988]) according to the method described by Yaksh & Rudy (Yaksh T. R., Rudy T. A., Physiol Behav. 17:1031-1036 (1976). In the first step, the level of pain experienced by rats with chronic pain was determined in comparison to healthy rats. The results of the test are shown in FIG. 5. The behavioral test consisted of measuring the level of allodynia on the pelvic, “sick” limb, where the time or strength of the irritating stimulus acting on the bottom of the foot were tested.
In the main test of the analgesic effect of the tested peptide, a single dose of the peptide was administered by the central route at predetermined time intervals. To that end, the compound was dissolved in physiological saline solution and administered by a Hamilton syringe to the rats on days 0, 4, 7, 14 of the experiment. Earlier studies let to establish that in our case, the effective dose of peptide for rats is 2.0 nmol/kg.
In the treatment of chronic pain, pharmacotherapy is based on repeated administration of the active substance, which is often associated with the occurrence of the tolerance and undesired side effects. Therefore, in the next step of the study, the analgesic compound was administered to the rats daily for a period of 14 days, FIG. 7.

mu opioid receptor (MOR) = settings: depending on the route of administration and the assay measuring analgesia; cited from earlier work
[2] = cited from earlier work
[3] = daily i.t. administration for 14 days

CN1CC[C@]23c4c5ccc(O)c4O[C@H]2[C@@H](O)C=C[C@H]3[C@H]1C5 [morphine, reference compound]
equipotent dose relative to that of the peptide according to the invention (acute pain model in rats; i.t.): approximately 100 times | dose producing an effect similar to the peptide according to the invention (acute pain model in rats; i.t., equipotent dose): 32.0 nmol/kg

C[C@@H](NC(=O)[C@@H](N)Cc1ccc(O)cc1)C(=O)NCC(=O)N[C@@H](Cc1ccccc1)C(=O)NNC(=O)[C@H](Cc1ccccc1)NC(=O)CNC(=O)[C@@H](C)NC(=O)[C@@H](N)Cc1ccc(O)cc1 [biphalin]
effect after intravenous administration relative to morphine (rats; animals, intravenous): corresponds to doses of morphine | activity relative to morphine after administration into the subarachnoid space (rats; rats, intrathecal): more than one thousand times more active than morphine

C[C@@H](NC(=O)[C@H](CO)NC(=O)[C@@H]1CCCN1C(=O)[C@H](Cc1ccc(O)cc1)NC(=O)CNC(=O)[C@H](Cc1ccccc1)NC(=O)[C@@H](C)NC(=O)[C@@H](N)Cc1ccc(O)cc1)C(=O)N[C@@H](Cc1ccccc1)C(=O)O [peptide according to the invention, H2N-Tyr-D-Ala-Gly-Phe-Gly-Tyr-Pro-Ser-D-Ala-Phe-OH]
analgesic effect at the threshold dose (acute pain model in rats; i.t., 0.004 nmol/kg): active at a low but noticeable level | duration of analgesic effect (acute pain model in rats; i.t., 0.04 nmol/kg): 30 min | duration of analgesic effect (acute pain model in rats; i.t., 0.08 nmol/kg): 60 min | activity in 60 and 120 min (acute pain model in rats; i.t., 0.08 nmol/kg and 0.4 nmol/kg, 60 and 120 min): 60-70 % MPE | analgesic potency compared to morphine (acute pain model in rats; i.t., FIGS. 1-3): definitely more potent than morphine | duration of maximum effects (acute pain model in rats; i.t., highest doses 0.08 nmol/kg and 0.4 nmol/kg): up to 30 min | analgesic effect compared to dermorphin at the lower dose (acute pain model in rats; subarachnoid, 0.04 nmol/kg, first 30 minutes): slightly higher in the first 30 minutes than for dermorphin | analgesic effect compared to dermorphin at the higher dose (acute pain model in rats; subarachnoid, 0.4 nmol/kg, first 30 minutes): equipotent for the first 30 minutes | analgesic potency compared to dermorphin (acute pain model in rats; subarachnoid, equivalent doses 0.04 and 0.4 nmol/kg): as potent as dermorphin | value of MPE maintained for 120 minutes after administration (acute pain model in rats; subarachnoid, higher dose 0.4 nmol/kg, 120 min): 40% | development of tolerance [1, 3]: did not develop tolerance | general condition / undesired side effects (weight loss, hyperalgesia to touch, vocalization, hair shedding) [1, 3]: in good general physical condition | hyperalgesia after long-term administration [1, 3]: did not induce hyperalgesia | analgesic effect, daily administration, fourteenth day ([1]; daily i.t. administration, day 14, versus control group): did not induce its analgesic effect | analgesic effect, daily administration, days 4 and 7 ([1]; daily i.t. administration, days 4 and 7, versus untreated group): highly analgesic | effective dose of peptide for rats ([1]; rats, CCI model, central route): 2.0 nmol/kg | analgesic effect, single dose ([1]; single dose i.t. on days 0, 4, 7, 14, result on days 4, 7 and 14 of pain induction, 2.0 nmol/kg): highly analgesic

C[C@@H](NC(=O)[C@@H](N)Cc1ccc(O)cc1)C(=O)N[C@@H](Cc1ccccc1)C(=O)NCC(=O)N[C@@H](Cc1ccc(O)cc1)C(=O)N1CCC[C@H]1C(=O)N[C@@H](CO)C(N)=O [dermorphin, Dermorphin]
potency relative to morphine (mu opioid receptor (MOR)): 750-2200 times | known stability in human or rat serum [2]: 170 to 190 min
